Measurements as given in US5459064A, “Protease” (Shionogi & Co., Ltd., priority 1990, dated 1995).
Residues, ends and D or L forms follow the SMILES beside them. *: point of attachment. Cbz = O=C(OCc1ccccc1)*; CH2Cl = ClC*

Columns and labels:
[1] = target: BLase (the present enzyme) (Bacillus licheniformis, UniProt P80057); experiment: Effect of inhibitors on the present enzyme; format: biochemical, Bacillus licheniformis ATCC No. 14580
oxidized insulin B chain = experiment: Cleavage of oxidized insulin B chain, HPLC peptide mapping; format: biochemical; conditions: 50 mM ammonium bicarbonate pH 7.8, enzyme/substrate 1/100 (W/W)

Sequence of BLase (the present enzyme) (P80057 95-316): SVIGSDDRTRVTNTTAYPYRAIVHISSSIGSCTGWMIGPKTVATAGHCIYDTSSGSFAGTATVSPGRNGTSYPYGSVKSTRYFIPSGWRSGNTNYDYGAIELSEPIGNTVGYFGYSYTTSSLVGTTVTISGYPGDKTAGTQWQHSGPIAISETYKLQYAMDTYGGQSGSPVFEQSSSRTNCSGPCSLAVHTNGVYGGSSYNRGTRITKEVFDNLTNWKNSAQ

Compound	Inhibition of the present enzyme [1]	Inhibitory effect after addition of metal ions [1]	Maximum inhibition ratio [1]	Action on oxidized insulin B chain (peptide mapping) (oxidized insulin B chain)
O=C(O)CN(CCN(CC(=O)O)CC(=O)O)CC(=O)O [EDTA]	partially inhibited	completely nullified	approximately 72%	
CC(C)C[C@H](NC(=O)[C@H](Cc1ccccc1)NC(=O)OCc1ccccc1)C(=O)N[C@@H](CCC(=O)O)C(=O)CCl [Z-Phe Leu Glu CH2 Cl] (Cbz-Phe-Leu-Glu-CH2Cl)	completely inhibited			
V8 protease: Serine protease from the V8 strain of Staphylococcus aureus, cleaves at the carboxyl terminal of glutamic acid residues				the peptide bonds at the carboxyl termini of the glutamic acid residues were cleaved
